Experimental data from patent publication US5663149A, “Human cancer inhibitory pentapeptide heterocyclic and halophenyl amides” (priority 1994, dated 1997).

Tests used:
PS-388 (Mouse Leukemia) = test: P-388 mouse leukemia cell growth inhibition; assay type: cell-based; details: Mouse Leukemia PS-388
Procedure: (§1) The only difference is historical usage.
(§2) Percent Growths are calculated for each dose.
(§3) This is the "baseline count", or "Tzero reading".

OVCAR-3 (Ovarian) = test: NCI human tumor cell line growth inhibition, OVCAR-3; assay type: cell-based; details: Ovarian OVCAR-3, 48 hours
Procedure: as §1, §2, §3

SK-MEL-5 (Melanoma) = test: NCI human tumor cell line growth inhibition, SK-MEL-5; assay type: cell-based; details: Melanoma SK-MEL-5, 48 hours
Procedure: as §1, §2, §3

SF-295 (CNS) = test: NCI human tumor cell line growth inhibition, SF-295; assay type: cell-based; details: CNS SF-295, 48 hours
Procedure: as §1, §2, §3

NCI-H460 (Lung-NSC) = test: NCI human tumor cell line growth inhibition, NCI-H460; assay type: cell-based; details: Lung-NSC NCI-H460, 48 hours
Procedure: as §1, §2, §3

A498 (Renal) = details: Renal A498, 48 hours;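 also: NCI protocol, compound given at five doses from 0.01 to 100 µg/ml, percent growth versus untreated controls relative to cell count at time zero, regression on log dose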
From the text: The following measures are used to express drug activity by giving the drug dose which reduces cell growth to a specified percentage of growth:
There is no mathematical difference between ED50 and GI50, which are both calculated using the same formula. The only difference is historical usage.
TGI, (Total Growth Inhibition), is the drug dose needed to yield zero percent growth, i.e., just as many cells at the end of the experiment as were present in the beginning. Whether just as many cells were killed as were produced (steady state), or no growth occurred (total inhibition), cannot be distinguished.
Each drug is tested at five (5) doses: 100-10-1-0.1-0.01 μg/ml. Percent Growths are calculated for each dose. […] The log of the dose is used during the regression computation.
At the start of an experiment, cells from the in vitro cell cultures are inoculated into the appropriate tubes or microtiter plates. One set of control tubes/plates is immediately counted to determine the number of cells at the start of the experiment. This is the "baseline count", or "Tzero reading". At the end of the experiment (48 hours later) a second set of control tubes/plates is analyzed to determine the "Control Growth" value. The growth (or death) of cells relative to the initial quantity of cells is used to define the "Percent of Growth".

KM20L2 (Colon) = test: NCI human tumor cell line growth inhibition, KM20L2; assay type: cell-based; details: Colon KM20L2, 48 hours
Procedure: as §1, §2, §3

Substance | ED-50 (PS-388 (Mouse Leukemia)) | GI-50 (OVCAR-3 (Ovarian)) | TGI (OVCAR-3 (Ovarian)) | GI-50 (SK-MEL-5 (Melanoma)) | TGI (SK-MEL-5 (Melanoma)) | GI-50 (SF-295 (CNS)) | TGI (SF-295 (CNS)) | GI-50 (NCI-H460 (Lung-NSC)) | TGI (NCI-H460 (Lung-NSC)) | GI-50 (A498 (Renal)) | TGI (A498 (Renal)) | GI-50 (KM20L2 (Colon)) | TGI (KM20L2 (Colon)) | LC-50 (OVCAR-3 (Ovarian)) | LC-50 (SK-MEL-5 (Melanoma)) | LC-50 (SF-295 (CNS)) | LC-50 (NCI-H460 (Lung-NSC)) | LC-50 (A498 (Renal)) | LC-50 (KM20L2 (Colon))
L-Dolavalyl-L-Valyl-N-Methyl-(S,S,R)-Dolaisoleuinyl-(S,R,R)-Dolaproinyl-L- (p-Chloro)phenylalanine N-2-(6-Chloro)benzothiazole Amide [9l] | 0.000458 µg/mL | 0.000018 µg/mL | 0.071 ng/mL | 0.0000061 µg/mL | > 0.1 ng/mL | 0.000036 µg/mL | > 0.1 ng/mL | 0.000043 µg/mL | > 0.1 ng/mL | 0.000059 µg/mL | > 0.1 ng/mL | 0.000031 µg/mL | 0.096 ng/mL |  |  |  |  |  | 
L-Dolavalyl-L-Valyl-N-Methyl-(S,S,R)-Dolaisoleuinyl-(S,R,R)-Dolaproinyl-L- Isoleucine N-3-Quinoline Amide [9s] | 0.00352 µg/mL | 0.000018 µg/mL | 0.079 ng/mL | 0.0000039 µg/mL | > 0.1 ng/mL | 0.000028 µg/mL | > 0.1 ng/mL | 0.000027 µg/mL | > 0.1 ng/mL | 0.000065 µg/mL | > 0.1 ng/mL | 0.00003 µg/mL | > 0.1 ng/mL | > 0.0001 µg/mL | > 0.0001 µg/mL | > 0.0001 µg/mL | > 0.0001 µg/mL | > 0.0001 µg/mL | > 0.0001 µg/mL
L-Dolavalyl-L-Valyl-N-Methyl-(S,S,R)-Dolaisoleuinyl-(S,R,R)-Dolaproinyl-L- Methionine N-1-(2-p-Chlorophenylethyl) Amide [9i] | 0.000111 µg/mL | 0.000017 µg/mL | 0.072 ng/mL | 0.0000012 µg/mL | 0.43 ng/mL | 0.000026 µg/mL | > 1 ng/mL | 0.0000032 µg/mL | 0.011 ng/mL | 0.000067 µg/mL | > 1 ng/mL | 0.0000048 µg/mL | 0.13 ng/mL | > 0.001 µg/mL | > 0.001 µg/mL | > 0.001 µg/mL | > 0.001 µg/mL | > 0.001 µg/mL | > 0.001 µg/mL
L-Dolavalyl-L-Valyl-N-Methyl-(S,S,R)-Dolaisoleuinyl-(S,R,R)-Dolaproinyl-L- Methionine N-2,5-Dichlorophenyl Amide [9g] | 0.000125 µg/mL | 0.00014 µg/mL | 0.51 ng/mL | 0.000062 µg/mL | 0.65 ng/mL | 0.00013 µg/mL | > 1 ng/mL | 0.00017 µg/mL | 0.66 ng/mL | 0.00036 µg/mL | > 1 ng/mL | 0.00015 µg/mL | 0.61 ng/mL | > 0.001 µg/mL | > 0.001 µg/mL | > 0.001 µg/mL | > 0.001 µg/mL | > 0.001 µg/mL | > 0.001 µg/mL
L-Dolavalyl-L-Valyl-N-Methyl-(S,S,R)-Dolaisoleuinyl-(S,R,R)-Dolaproinyl-L- Methionine N-2-Benzothiazole Amide [9m] | 0.000243 µg/mL | 0.0000016 µg/mL | 0.011 ng/mL | 0.0000024 µg/mL | > 0.1 ng/mL | 0.000022 µg/mL | > 0.1 ng/mL | 0.000011 µg/mL | 0.08 ng/mL | 0.000016 µg/mL | > 0.1 ng/mL | 0.0000041 µg/mL | > 0.1 ng/mL |  |  |  |  |  | 
L-Dolavalyl-L-Valyl-N-Methyl-(S,S,R)-Dolaisoleuinyl-(S,R,R)-Dolaproinyl-L- Methionine N-2-Chlorophenyl Amide [9b] | 0.000211 µg/mL | 0.000028 µg/mL | 0.091 ng/mL | 0.00002 µg/mL | > 1 ng/mL | 0.000036 µg/mL | > 1 ng/mL | 0.000031 µg/mL | 0.11 ng/mL | 0.000073 µg/mL | > 1 ng/mL | 0.000034 µg/mL | 0.18 ng/mL | > 0.001 µg/mL | > 0.001 µg/mL | > 0.001 µg/mL | > 0.001 µg/mL | > 0.001 µg/mL | > 0.001 µg/mL
L-Dolavalyl-L-Valyl-N-Methyl-(S,S,R)-Dolaisoleuinyl-(S,R,R)-Dolaproinyl-L- Methionine N-2-Pyridyl Amide [9o] | 0.000262 µg/mL | 0.000032 µg/mL | 0.22 ng/mL | 0.000016 µg/mL | 0.6 ng/mL | 0.00016 µg/mL | > 1 ng/mL | 0.00012 µg/mL | 0.59 ng/mL | 0.00023 µg/mL | > 1 ng/mL | 0.000033 µg/mL | 0.31 ng/mL | > 0.001 µg/mL | > 0.001 µg/mL | > 0.001 µg/mL | > 0.001 µg/mL | > 0.001 µg/mL | > 0.001 µg/mL
L-Dolavalyl-L-Valyl-N-Methyl-(S,S,R)-Dolaisoleuinyl-(S,R,R)-Dolaproinyl-L- Methionine N-3-Chlorophenyl Amide [9c] | 0.00000264 µg/mL | 0.000011 µg/mL | 0.1 ng/mL | 0.0000013 µg/mL | 0.26 ng/mL | 0.000031 µg/mL | > 1 ng/mL | 0.000025 µg/mL | 0.11 ng/mL | 0.000084 µg/mL | > 1 ng/mL | 0.000023 µg/mL | 0.1 ng/mL | > 0.001 µg/mL | > 0.001 µg/mL | > 0.001 µg/mL | > 0.001 µg/mL | > 0.001 µg/mL | > 0.001 µg/mL
L-Dolavalyl-L-Valyl-N-Methyl-(S,S,R)-Dolaisoleuinyl-(S,R,R)-Dolaproinyl-L- Methionine N-3-Quinoline Amide [9p] | 0.000356 µg/mL | 0.00000032 µg/mL | 0.01 ng/mL | 0.00000038 µg/mL | > 0.1 ng/mL | 0.000004 µg/mL | > 0.1 ng/mL | 0.0000031 µg/mL | 0.017 ng/mL | 0.000008 µg/mL | > 0.1 ng/mL | 0.00000065 µg/mL | > 0.1 ng/mL | > 0.0001 µg/mL | > 0.0001 µg/mL | > 0.0001 µg/mL | > 0.0001 µg/mL | > 0.0001 µg/mL | > 0.0001 µg/mL
L-Dolavalyl-L-Valyl-N-Methyl-(S,S,R)-Dolaisoleuinyl-(S,R,R)-Dolaproinyl-L- Methionine N-4-Chlorophenyl Amide [9e] | 0.000603 µg/mL | 0.00000045 µg/mL | 0.0042 ng/mL | 0.00000033 µg/mL | > 0.01 ng/mL | 0.0000023 µg/mL | > 0.01 ng/mL | 0.0000022 µg/mL | 0.0085 ng/mL | 0.0000035 µg/mL | > 0.01 ng/mL | 0.00000084 µg/mL | 0.0051 ng/mL | > 0.00001 µg/mL | > 0.00001 µg/mL | > 0.00001 µg/mL | > 0.00001 µg/mL | > 0.00001 µg/mL | > 0.00001 µg/mL
L-Dolavalyl-L-Valyl-N-Methyl-(S,S,R)-Dolaisoleuinyl-(S,R,R)-Dolaproinyl-L- Methionine N-4-Fluorophenyl Amide [9a] | 0.000317 µg/mL | 0.000049 µg/mL | 0.33 ng/mL | 0.000038 µg/mL | 0.57 ng/mL | 0.0001 µg/mL | > 1 ng/mL | 0.000089 µg/mL | 0.66 ng/mL | 0.00025 µg/mL | > 1 ng/mL | 0.00005 µg/mL | 0.39 ng/mL | > 0.001 µg/mL | > 0.001 µg/mL | > 0.001 µg/mL | > 0.001 µg/mL | > 0.001 µg/mL | > 0.001 µg/mL
